Experimental data taken from patent publication US8802597B2, “Herbicidal pyrimidines” (E I du Pont de Nemours and Company, priority 2003, dated 2014).

What was measured:
Format in all cases: in vivo
[1] = tested on: morningglory (Ipomoea spp.); assay: Test A pre/postemergence
Summary of the method: (§1)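 Ratings: 0 = no effect, 100 = complete control, assessed visually about ten days post-treatment in a greenhouse. Applications: soil-directed preemergence spray and postemergence spray on 1- to 2-leaf plants, both using a surfactant-containing non-phytotoxic solvent formulation.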

[2] = tested on: crabgrass (Digitaria sanguinalis); assay: Test A pre/postemergence
Summary of the method: as §1

[3] = tested on: giant foxtail (Setaria faberi); assay: Test A pre/postemergence
Summary of the method: as §1

[4] = tested on: barnyardgrass (Echinochloa crus-galli); assay: Test A pre/postemergence
Summary of the method: as §1

[5] = tested on: redroot pigweed (Amaranthus retroflexus); assay: Test A pre/postemergence
Summary of the method: as §1

[6] = tested on: velvetleaf (Abutilon theophrasti); assay: Test A pre/postemergence
Summary of the method: as §1

[7] = tested on: transplanted rice seedlings (Oryza sativa cv. ‘Japonica-M202’); assay: Test E flooded paddy water application; conditions: Flood, 21 days, scale 0 to 100 (0 no effect, 100 complete control)
Summary of the method: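 Response scored visually on a 0–100 scale (100 = complete control) at 21 days against untreated pots. Treatment was into paddy water 3 cm deep over silt loam, with plants at the 2.0–2.5-leaf stage, grown under 16-h light at 29.5/26.7 °C day/night.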

[8] = tested on: late watergrass (Echinochloa oryzicola); assay: Test E flooded paddy water application; conditions: Flood, 21 days, scale 0 to 100 (0 no effect, 100 complete control)
Summary of the method: (§2)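 Greenhouse pots of Tama silt loam with weeds and rice at 2.0–2.5-leaf stage, flooded to 3 cm; compounds applied directly into paddy water, depth maintained. Visual rating versus untreated controls after 21 days, 0 (no effect) to 100 (complete control); 29.5/26.7 °C, 16-h photoperiod.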

[9] = tested on: early watergrass (Echinochloa oryzoides); assay: Test E flooded paddy water application; conditions: Flood, 21 days, scale 0 to 100 (0 no effect, 100 complete control)
Summary of the method: as §2

[10] = tested on: smallflower umbrella sedge (Cyperus difformis); assay: Test E flooded paddy water application; conditions: Flood, 21 days, scale 0 to 100 (0 no effect, 100 complete control)
Summary of the method: as §2

[11] = tested on: water seeded rice seedlings (Oryza sativa cv. ‘Japonica-M202’); assay: Test E flooded paddy water application; conditions: Flood, 21 days, scale 0 to 100 (0 no effect, 100 complete control)
Summary of the method: as §2

[12] = tested on: rice flatsedge (Cyperus iria); assay: Test E flooded paddy water application; conditions: Flood, 21 days, scale 0 to 100 (0 no effect, 100 complete control)
Summary of the method: as §2

[13] = tested on: ducksalad (Heteranthera limosa); assay: Test E flooded paddy water application; conditions: Flood, 21 days, scale 0 to 100 (0 no effect, 100 complete control)
Summary of the method: as §2

[14] = tested on: purple redstem (Ammannia coccinea); assay: Test E flooded paddy water application; conditions: Flood, 21 days, scale 0 to 100 (0 no effect, 100 complete control)
Summary of the method: as §2

[15] = tested on: barnyardgrass (Echinochloa crus-galli); assay: Test E flooded paddy water application; conditions: Flood, 21 days, scale 0 to 100 (0 no effect, 100 complete control)
Summary of the method: as §2

[16] = tested on: junglerice (Echinochloa colona); assay: Test E flooded paddy water application; conditions: Flood, 21 days, scale 0 to 100 (0 no effect, 100 complete control)
Summary of the method: as §2

[17] = tested on: bearded (brdd.) sprangletop (Leptochloa fusca ssp. fascicularis); assay: Test E flooded paddy water application; conditions: Flood, 21 days, scale 0 to 100 (0 no effect, 100 complete control)
Summary of the method: as §2

[18] = Postemergence, 125 g ai/ha, 0 to 100 scale (0 no effect, 100 complete control)
[19] = Postemergence, 500 g ai/ha, 0 to 100 scale (0 no effect, 100 complete control)
[20] = Preemergence, 125 g ai/ha, 0 to 100 scale where 0 is no effect and 100 is complete control, approximately ten days
[21] = Preemergence, 500 g ai/ha, 0 to 100 scale where 0 is no effect and 100 is complete control, approximately ten days

For `CCOC(=O)c1nc(-c2ccc(OC)cc2)nc(N)c1Cl` [Compound 98], the “Plant response rating, Morningglory” value [1, 18] was 0, the “Plant response rating, Morningglory” value [1, 19] was 0 and the “Plant response rating, Morningglory” value [1, 20] was 0. The “Plant response rating, Morningglory” value [1, 21] was 0, the “Plant response rating, Crabgrass” value [2, 18] was 0 and the “Plant response rating, Crabgrass” value [2, 19] was 10. The “Plant response rating, Crabgrass” value [2, 20] was 0, the “Plant response rating, Crabgrass” value [2, 21] was 15 and the “Plant response rating, Foxtail, Giant” value [3, 18] was 0. For the same compound, the “Plant response rating, Foxtail, Giant” value [3, 19] was 15, the “Plant response rating, Foxtail, Giant” value [3, 20] was 0 and the “Plant response rating, Foxtail, Giant” value [3, 21] was 0. For the same compound, the “Plant response rating, Barnyardgrass” value [4, 18] was 0, the “Plant response rating, Barnyardgrass” value [4, 19] was 20 and the “Plant response rating, Barnyardgrass” value [4, 20] was 0. The “Plant response rating, Barnyardgrass” value [4, 21] was 0, the “Plant response rating, Pigweed” value [5, 18] was 5 and the “Plant response rating, Pigweed” value [5, 19] was 15. The “Plant response rating, Pigweed” value [5, 20] was 0, the “Plant response rating, Pigweed” value [5, 21] was 0 and the “Plant response rating, Velvetleaf” value [6, 18] was 35. The “Plant response rating, Velvetleaf” value [6, 19] was 45, the “Plant response rating, Velvetleaf” value [6, 20] was 0 and the “Plant response rating, Velvetleaf” value [6, 21] was 5. The “Rice, Transplanted plant response rating” value ([7]; 32 g ai/ha) was 0, the “Rice, Transplanted plant response rating” value ([7]; 64 g ai/ha) was 0 and the “Rice, Transplanted plant response rating” value ([7]; 125 g ai/ha) was 0. The “Rice, Transplanted plant response rating” value ([7]; 250 g ai/ha) was 0, the “Plant response rating, Rice, Transplanted” value ([7]; 16 g ai/ha) was 0 and the “Watergrass, Late plant response rating” value ([8]; 32 g ai/ha) was 0. The “Watergrass, Late plant response rating” value ([8]; 64 g ai/ha) was 0, the “Watergrass, Late plant response rating” value ([8]; 125 g ai/ha) was 0 and the “Watergrass, Late plant response rating” value ([8]; 250 g ai/ha) was 0. For the same compound, the “Plant response rating, Watergrass, Late” value ([8]; 16 g ai/ha) was 0, the “Watergrass, Early plant response rating” value ([9]; 32 g ai/ha) was 0 and the “Watergrass, Early plant response rating” value ([9]; 64 g ai/ha) was 0. The “Watergrass, Early plant response rating” value ([9]; 125 g ai/ha) was 0, the “Watergrass, Early plant response rating” value ([9]; 250 g ai/ha) was 0 and the “Plant response rating, Watergrass, Early” value ([9]; 16 g ai/ha) was 0. The “Sedge, Umbrella plant response rating” value ([10]; 32 g ai/ha) was 60, the “Sedge, Umbrella plant response rating” value ([10]; 64 g ai/ha) was 60 and the “Sedge, Umbrella plant response rating” value ([10]; 125 g ai/ha) was 60. For the same compound, the “Sedge, Umbrella plant response rating” value ([10]; 250 g ai/ha) was 60, the “Plant response rating, Sedge, Umbrella” value ([10]; 16 g ai/ha) was 60 and the “Rice, Water Seeded plant response rating” value ([11]; 32 g ai/ha) was 0. For the same compound, the “Rice, Water Seeded plant response rating” value ([11]; 64 g ai/ha) was 0, the “Rice, Water Seeded plant response rating” value ([11]; 125 g ai/ha) was 0 and the “Rice, Water Seeded plant response rating” value ([11]; 250 g ai/ha) was 0. The “Plant response rating, Rice, Water Seeded” value ([11]; 16 g ai/ha) was 0, the “Flatsedge, Rice plant response rating” value ([12]; 32 g ai/ha) was 80 and the “Flatsedge, Rice plant response rating” value ([12]; 64 g ai/ha) was 100. The “Flatsedge, Rice plant response rating” value ([12]; 125 g ai/ha) was 100, the “Flatsedge, Rice plant response rating” value ([12]; 250 g ai/ha) was 100 and the “Plant response rating, Flatsedge, Rice” value ([12]; 16 g ai/ha) was 80. The “Ducksalad plant response rating” value ([13]; 32 g ai/ha) was 100, the “Ducksalad plant response rating” value ([13]; 64 g ai/ha) was 100 and the “Ducksalad plant response rating” value ([13]; 125 g ai/ha) was 100. The “Ducksalad plant response rating” value ([13]; 250 g ai/ha) was 100, the “Plant response rating, Ducksalad” value ([13]; 16 g ai/ha) was 0 and the “Redstem plant response rating” value ([14]; 32 g ai/ha) was 0. For the same compound, the “Redstem plant response rating” value ([14]; 64 g ai/ha) was 0, the “Redstem plant response rating” value ([14]; 125 g ai/ha) was 40 and the “Redstem plant response rating” value ([14]; 250 g ai/ha) was 40. For the same compound, the “Plant response rating, Redstem” value ([14]; 16 g ai/ha) was 0, the “Barnyardgrass plant response rating” value ([15]; 32 g ai/ha) was 0 and the “Barnyardgrass plant response rating” value ([15]; 64 g ai/ha) was 0. For the same compound, the “Barnyardgrass plant response rating” value ([15]; 125 g ai/ha) was 0, the “Barnyardgrass plant response rating” value ([15]; 250 g ai/ha) was 0 and the “Plant response rating, Barnyardgrass” value ([15]; 16 g ai/ha) was 0. The “Junglerice plant response rating” value ([16]; 32 g ai/ha) was 0, the “Junglerice plant response rating” value ([16]; 64 g ai/ha) was 0 and the “Junglerice plant response rating” value ([16]; 125 g ai/ha) was 0. For the same compound, the “Junglerice plant response rating” value ([16]; 250 g ai/ha) was 0, the “Plant response rating, Junglerice” value ([16]; 16 g ai/ha) was 0 and the “Sprangletop, Brdd. plant response rating” value ([17]; 32 g ai/ha) was 0. For the same compound, the “Sprangletop, Brdd. plant response rating” value ([17]; 64 g ai/ha) was 0, the “Sprangletop, Brdd. plant response rating” value ([17]; 125 g ai/ha) was 0 and the “Sprangletop, Brdd. plant response rating” value ([17]; 250 g ai/ha) was 0. The “Plant response rating, Sprangletop, Brdd.” value ([17]; 16 g ai/ha) was 0.
